Where two headings read alike, the source gives them in different places.

In data set [1] the test system is eosinophils. Here is the method:
(§1) The phase 3 clinical trial was a double-blind study of dexpramipexole in ALS patients randomized 1:1 to placebo or dexpramipexole 300 mg daily treatment. Hematology parameters were collected as part of routine safety monitoring. Eosinophil and basophil counts were retrospectively analyzed by visit.
Eosinophil levels were summarized over available time points and analyzed by ANOVA testing the effect of treatment vs. placebo on mean changes in serum eosinophil counts from baseline. Subjects with baseline eosinophils from 0 to 0.02×10^9/L (constituting less than 2% of all subjects analyzed) were censored from the primary analysis because of the inherent limitation to observe a decline from baseline.
Statistical analysis of the change from baseline was performed at month 6 to remove the effect of study dropouts in later months.

In data set [2] the test system is eosinophils. Here is the method: In a 39-week repeat-dose toxicology study, minipigs were dosed at 0, 7.5, 25, and 75 mg/kg dexpramipexole by daily oral gavage through Study Day 45 and at 0, 7.5, 25, and 50 mg/kg dexpramipexole from Study Day 46 to study completion.
The source holds these as a separate data set.

The test system of data set [3] is myeloid and lymphoid cell types, red blood cells, platelets. As to conditions: 300 mg daily, month 6. As for the experimental part: Hematological parameters were measured in a Phase 3 study of dexpramipexole in ALS. Because of the high rate of mortality among ALS patients, including subjects in the Phase 3 trial, hematology parameters obtained at the month 6 visit were chosen for analysis to remove the effect of study dropouts in later months.

A further data set has as its system bone marrow cells. As to conditions: 30 mg/kg or 100 mg/kg daily gavage, 70 days, vs vehicle control. As for the experimental part:
The study consisted of 3 groups of BALB/cByJ mice (10 mice per group). Mice received daily gavage treatments of either 30 mg/kg, 100 mg/kg of dexpramipexole or vehicle control for 70 days. Bone marrow was processed into single cell suspensions and cells were stained with fluorescent conjugate antibodies to analyze the developmental stages of cells by flow cytometry. […] The columns depict the mean for each group and the error bar indicates the standard error of the mean.

The conditions of data set [4]: exposures up to 18 months.
In the next data set the test system is basophils. As to conditions: 300 mg daily. Here is the method:
as §1
Changes in basophil counts were also analyzed in the Phase 3 trial.

The subject of data set [5] is eosinophils. As to conditions: for decline in mean serum eosinophils from baseline to week 12: 12 weeks, Part 1; for mean eosinophils at week 16 recovered to % of baseline levels: after one-month washout. As for the experimental part: The Phase 2 trial was a two-part, double-blind study that evaluated the safety, tolerability, and clinical effects of dexpramipexole in ALS patients.
In Part 1, subjects were randomized to placebo (n=27), 50 mg/day (n=23), 150 mg/day (n=26), or 300 mg/day dexpramipexole (n=26) for 12 weeks.

As for `CCCN[C@@H]1CCc2nc(N)sc2C1` [dexpramipexole, (6R)-2-amino-4,5,6,7-tetrahydro-6-(propylamino) benzothiazole], the “subjects experiencing a 50% or greater decline in eosinophil count” value with eosinophils [1] (300 mg daily, after 6 months of treatment) is 77.5 % of subjects. Moreover, in the data set with eosinophils [1] (300 mg daily, after 8-12 weeks of treatment), the “peripheral blood eosinophil count” value was “profound decrease”. Besides, in the data set on eosinophils [1] (300 mg daily, month 6), the “mean eosinophil counts reduced from baseline” value worked out at 68.4%. The “decrease in eosinophil count in subjects with higher eosinophil counts (>0.25×10^9/L)” value in the data set on eosinophils [1] (300 mg daily, n=42, after 6 months of treatment) was 75%. Further, the “time at which eosinophil-lowering effect reached plateau” value in the data set on eosinophils [1] (300 mg daily, persisted through month 12) is roughly 4 month. Further, the “eosinophil counts in subject with highest baseline eosinophil count” value in the data set on eosinophils [1] (one Phase 3 subject, persisted through month 12) is reported as “decrease in eosinophil counts”. For the same compound, the “safety assessment of eosinophil differences” value in the data set on eosinophils [2] (minipig, in vivo) is recorded as “not considered adverse”. Further, in the data set on eosinophils [2] (minipigs, 7.5, 25 and 75/50 mg/kg daily oral gavage, 39 weeks), the reduction in eosinophils entry is “dose- and time-dependent reduction”. Further, the “all myeloid and lymphoid cell types measured, change from baseline” value in data set [3] was “statistically significant mean reductions”. For the same compound, in the data set on bone marrow cells, the “Siglec-F^lo IL5Rα^hi positive cells (developing B cells, basophils and other cell populations) in bone marrow” value is “lowered”. Moreover, the “number of Scal^+ c-Kit^+ lineage negative cells (multipotent hematopoietic stem cells) in bone marrow” value with bone marrow cells was “lowered”. Moreover, in data set [4], the tolerability in humans result was “well-tolerated”. The “time at which basophil count decline reached plateau” value in the data set with basophils (remained reduced through month 12) is recorded as roughly 4 month. Moreover, the “mean basophil counts reduced from baseline” value in the data set on basophils (six month analysis) is recorded as 45.5%. Besides, the “decline in mean serum eosinophils from baseline to week 12” value in the data set with eosinophils [5] (50 mg/day) is on record as 18.2%; in the data set with eosinophils [5] (150 mg/day), 69.9%; in the data set with eosinophils [5] (300 mg/day), 42.9%. Besides, the “mean eosinophils at week 16 recovered to % of baseline levels” value in the data set on eosinophils [5] (150 mg/day group) is 47 % of baseline levels; with eosinophils [5] (300 mg/day group) it was 73 % of baseline levels. In the data set on eosinophils [5] (ALS subjects receiving dexpramipexole, Phase 2), the “decrease in eosinophil counts” value was “dose- and time-dependent decrease”. Moreover, the “decline in eosinophils from week 16 to week 40” value is 17.6% with eosinophils [5] (Part 2, 25 mg twice daily) and 78.9% in the data set with eosinophils [5] (Part 2, 150 mg twice daily). For the same compound, in the data set on eosinophils [5] (one Phase 2 subject, persisted through month 12), the “eosinophil counts in one subject with hypereosinophilia at Part 2 baseline” value is given as “decrease in eosinophil counts”.
